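96-well plates; 48 h exposure; 5 concentrations. Endpoints by linear interpolation between flanking doses. Not reached: highest tested concentration assigned. TGI: total growth inhibition.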

Common to all, as to test: inhibition of tumour cell growth, NCI panel, 48 h
The subject of experiment [1] is A498 renal.
Experiment [2] concerns A549 NSCLC.
The test system of experiment [3] is M14 melanoma.
In experiment [4] the test system is PC-3 prostate.
Experiment [5] deals with SF-539 CNS.
Experiment [6] concerns SK-MEL-5 melanoma.
The subject of experiment [7] is SNB-19 CNS.
For experiment [8], the system named is U251 CNS.
In experiment [9] the test system is MCF7 breast.
For experiment [10], the system named is TK-10 renal.

As for `COc1cccc2cc(C(N)=O)c(=N)oc12`, the TGI in [1], in [2], in [3], in experiment [4], in [5] and in experiment [6] was more than 100 µM in each case. The TGI in [7] and in experiment [8] was more than 100 µM in each case.
Regarding `CCOc1ccccc1/C=C1\NC(=O)N(/C=C2\C(=O)Oc3ccccc3C2=O)C1=O`, the TGI is more than 100 µM in [2]; more than 100 µM in experiment [3]; more than 100 µM in [9]; more than 100 µM in experiment [4]; more than 100 µM in [5]; 57.9 µM in experiment [6]. The TGI in [7] was more than 100 µM; in experiment [10], 74.7 µM; in experiment [8] it was more than 100 µM.
Consider `CC1(O)CC2C(CC1SCCO)C2(C)C` (stereo not given), for which the TGI in [1], in experiment [2], in [3], in experiment [5], in experiment [6] and in [10] was more than 100 µM each time. The TGI in experiment [8] was more than 100 µM.
Turning to `c1ccc(N=C2SC(=NNc3ccccc3)SC2=Nc2ccccc2)cc1`, the TGI in experiment [1], in experiment [2], in experiment [4], in experiment [5], in experiment [6] and in experiment [7] was more than 100 µM in each case. Also, the TGI in experiment [10] and in experiment [8] was more than 100 µM throughout.
On to `CN1C(c2ccccc2)=CC(=O)C(O)=C(c2ccccc2)S1(=O)=O`, for which the TGI in experiment [2], in [3], in [9], in experiment [4], in experiment [5] and in experiment [6] was more than 100 µM throughout. Besides, the TGI in experiment [7], in experiment [10] and in experiment [8] was more than 100 µM throughout.
For the molecule `O=C1c2ccccc2-c2nc(-c3cccnc3)cc3c2c1nc1ccccc13`, the TGI in [2], in experiment [3], in experiment [9], in [4], in experiment [5] and in [7] was more than 100 µM throughout. The TGI in experiment [10] and in experiment [8] was more than 100 µM in each case.
Turning to `CCOc1ccc2c(c1)/C(=C(\C(Cl)=C(Cl)Cl)[N+](=O)[O-])N2`, the TGI in [1], in [2], in experiment [3], in experiment [9], in experiment [4] and in [5] was more than 100 µM throughout. Moreover, the TGI in [7] and in experiment [8] was more than 100 µM throughout.
Regarding `N#Cc1c(-c2ccccc2)/c(=C\O)c(=O)n2c1nc1ccccc12`, the TGI in [1], in experiment [2], in experiment [3], in experiment [4], in [5] and in experiment [6] was more than 100 µM each time. Further, the TGI in experiment [7], in experiment [10] and in [8] was more than 100 µM each time.
For the molecule `C=C1c2c(cc3c(c2O)c(=O)c2ccccc2n3C)OC1(C)C`, the TGI in experiment [1], in [3], in [5], in [6], in experiment [7] and in [10] was more than 100 µM throughout. Also, in experiment [8], the TGI is more than 100 µM.
As for `NC(=O)CCC(NCc1c2ccccc2[n+]([O-])c2ccccc12)C(=O)O` (stereo not given), the TGI in experiment [1], in experiment [2], in experiment [3], in experiment [6], in [7] and in experiment [10] was more than 100 µM each time. Further, the TGI in experiment [8] was more than 100 µM.
For the molecule `Cc1cccc(Nc2cn(COCc3ccccc3)c(=O)[nH]c2=O)c1`, the TGI in [1], in experiment [2], in [3], in experiment [9], in experiment [4] and in [6] was more than 100 µM throughout. Further, the TGI in [7] and in [8] was more than 100 µM throughout.
For the molecule `CCP(=O)(CC)C(Cl)(Cl)C(O)C(C)(C)C` (stereo not given), the TGI in experiment [1], in experiment [2], in experiment [3], in experiment [9], in experiment [4] and in experiment [6] was more than 100 µM each time. For the same molecule, the TGI in experiment [7], in [10] and in experiment [8] was more than 100 µM throughout.
`Cc1ccc(C(=O)C(C)N)cc1` (stereo not given): the TGI in experiment [1], in experiment [2], in experiment [3], in [5], in experiment [6] and in experiment [7] was more than 100 µM throughout. The TGI in [10] and in [8] was more than 100 µM each time.
With `O=C(NO)c1coc2ccccc2c1=O`, the TGI in [1], in experiment [2], in experiment [3], in experiment [5], in [6] and in [7] was more than 100 µM in each case. In addition, the TGI in [10] and in experiment [8] was more than 100 µM each time.
`CC[C@@]1(O)C(=O)OCc2c1cc1n(c2=O)Cc2c-1nc1ccccc1c2CC[Si](C)(C)C`: the TGI in experiment [1] is 0.315 µM; in experiment [2], 7.61 µM; in experiment [3], 0.0155 µM; in [9], more than 100 µM; in [4], more than 56.9 µM; in [5], 3.32 µM. The TGI in experiment [6] is less than 0.0425 µM; in experiment [7] it was more than 100 µM; in [8], 0.103 µM.
Take `CC(C)(C)[Si](C)(C)OCCCC#CCO`: the TGI in experiment [1], in [2], in experiment [3], in [5], in experiment [6] and in [7] was more than 100 µM in each case. For the same molecule, the TGI in experiment [10] and in experiment [8] was more than 100 µM in each case.

Source of the values: PubChem BioAssay (NCI).
